Measurements: patent publication US20030109581A1, “Chemical attractants for yellowjacket wasps” (priority 2001, published 2003)

How the values were obtained:
[1] = test system: Vespula maculifrons; experiment: Field trap captures, BARC-W, 9 days in September/October; assay type: in vivo
Procedure: (§1) Field tests were carried out using lures prepared as described in Example 1. Traps baited with various prepared lures, in addition to unbaited control traps, were hung from trees or fences at three locations: Beltsville Agricultural Research Center-West (BARC-W), Beltsville, Md.; University of Maryland Apiary; and a private residence, Silver Spring, Md., with apple trees on the property. Most tests were conducted late in the season when populations of yellowjackets were greatest. After exposure in the field for varying periods of time, traps were brought to the laboratory for sorting and counting insects by species.
The equivalence of T vs. L was tested along with the effect of B and the possible synergism of HB. Six chemical treatments in replicates of three were tested over a period of 9 days in September/October at BARC-W: IB/AA; HB+A/T/B; IB/AA+A/T;
The test also corroborates earlier results indicating localized distribution of yellowjacket species since no V. squamosa were captured and only one individual of V. germanica was caught. The synergistic effect between IB/AA and the novel blends was also confirmed.
Polyvinyl chloride (PVC) plugs containing an about 16% load of volatiles were prepared. For purposes of example, lures containing (E)-2-hexenal diethyl acetal, A (Bedoukian, Inc., Danbury, Conn.) and linalool, L (Aldrich Chemicals, Milwaukee, Wis.) are described. […]

[2] = test system: Vespula maculifrons (eastern yellowjacket); experiment: Field trap captures, BARC-W, 7 days in September (FIG. 1); assay type: in vivo
Procedure: as §1
In initial experiments, the equivalence of H vs. A was tested along with the synergism between IB/AA and H/T/B or A/T/B blends. […] The use of acetal (A) is considered more desirable than hexenal (H) for this type of lure because of its lower volatility and greater stability.
Polyvinyl chloride (PVC) plugs containing an about 16% load of volatiles were prepared. For purposes of example, lures containing (E)-2-hexenal diethyl acetal, A (Bedoukian, Inc., Danbury, Conn.) and linalool, L (Aldrich Chemicals, Milwaukee, Wis.) are described.
PVC resin (200 g) was mixed thoroughly with 60 ml dioctyl phthalate, a blend of 30 ml of A with 20 ml of L was poured into the plasticized PVC and mixed. […]

OCc1ccccc1 [B, benzyl alcohol]
effect of B on lure activity [1]: is not essential for lure activity

C=CC(C)(O)CCC=C(C)C (stereo not drawn) [L, linalool]
equivalence of T vs. L [1]: effectively substitutes for T

CCC/C=C/C(OCC)OCC [A, (E)-2-hexenal diethyl acetal]
equivalence of H vs. A [2]: can effectively replace H in this system
